Measured values from ChEMBL document CHEMBL1146467, “A new phloroglucinol derivative from the brown alga Eisenia bicyclis: potential for the effective treatment of diabetic complications” (J Nat Prod, 2004).

Assays:
[1] = Inhibition of alpha-amylase at 1 mM after 15 mins by dinitrosalicylic acid method relative to control
[2] = Inhibition of advanced glycation end product formation assessed as CML level at 1 mM after 7 days in 0.1 M phosphate buffer at pH 7.4 by ELISA relative to control; type: physicochemical; conditions: pH 7.4, 168 h, 1000 µM

| inhibition [1] | inhibition (INH) [2] | SMILES |
| --- | --- | --- |
| 97.5% | 86.7% | Oc1cc(O)cc(Oc2c(O)cc(O)c3c2Oc2c(O)cc(Oc4c(O)cc(Oc5c(O)cc(O)c6c5Oc5c(O)cc(O)cc5O6)cc4O)cc2O3)c1 [DIECKOL] |
| 87.5% | 96.2% | Oc1cc(O)cc(Oc2c(O)cc(O)c3c2Oc2c(O)cc(O)cc2O3)c1 [ECKOL] |

| SMILES | inhibition [1] | inhibition (INH) [2] |
| --- | --- | --- |
| N=C(N)NN [PIMAGEDINE] | – | 76% |
